One data set deals with tubulin. Kind of data set: Tubulin polymerization assay in MCF7 cells. The class given is cell-based, human. The following applies: single agent, Western blotting of soluble and polymerized tubulin. (In general: Immunoblotting shows a protein as a band on a membrane.)
The next data set concerns MCF7. Kind of data set: Mitogenic assay, growth inhibition ([3H]-thymidine incorporation), retinoid/paclitaxel co-treatment. Type of data set: cell-based, human. On the procedure:
(§1) Cellular proliferation was quantified using [^3H] thymidine incorporation. Cells were plated in 96 well plates in media containing 10% fetal bovine serum (FBS) and allowed to adhere overnight. Cell medium was removed the following day and the indicated compounds were added to fresh medium supplemented with 10% of charcoal stripped FBS (HyClone). Compound-containing medium was renewed after 3 days exposure. After 6 day treatment, 4 μCi/ml of [^3H]thymidine (NEN Life Science Products) were added to each well for 2 to 4 hours. The cells were then trypsinized and harvested on GF/B glass fiber filters. [^3H]thymidine incorporated into the DNA was measured in a scintillation Topcount counter (Packard). The results were expressed as percent inhibition compared to the DMSO vehicle.
(In general: Incorporation of labelled thymidine or its analogues reports DNA synthesis.)

A further data set deals with SQCC-Y1. The data set is described as above. Type of data set: cell-based, human. How it is done: as §1
The next data set has as its system OVCAR3. The data set is described as above. Type of data set: cell-based, human. How it is done:
as §1

For data set [1], the system named is AP1 transcriptional activity. Kind of data set: AP1 reporter assay, MCF7 cells with (AP1)5x-tk-Luc. Type of data set: cell-based, human. On the procedure: AP1 transcriptional activity was assessed in MCF7 cells stably transfected with (AP1)5x-tk-Luc reporter gene (IGBMC, France). (AP1)5x corresponds to the collagenase gene AP1 response element repeated 5 times in tandem, tk is the minimal thymidine kinase promoter, and Luc the coding sequence of the luciferase gene. MCF7 cells were plated in 12-well plates at a density of 400,000 cells per well in DMEM supplemented with 10% FBS and allowed to adhere overnight. The next day, the medium was removed, the cells were washed with PBS and supplemented with DMEM medium containing 0.5% of charcoal stripped FBS (HyClone). […] The luciferase activity was measured by using Luc-lite system from Packard according to manufacturer's recommendations. Results are expressed as percent activity compared to PMA (10 nM) which was assigned as 100% activity. The data presented are the mean ± sem (standard error of the mean)of 3 independent experiments.

Data set [2] relates to Jun N-terminal Kinase (JNK). Kind of data set: Jun N-terminal Kinase assay (immunoprecipitated JNK from MCF7 cells). Type of data set: cell-based, human. How it is done:
Activity of JNK was measured in accordance with procedures described by Coso et al. (Cell 1995 81:1137-1146) with minor modifications. MCF-7 cells were plated in 6-well plates in DMEM supplemented with 10% FBS and allowed to adhere overnight. The next day, the cells were switched to DMEM supplemented with 0.5% charcoal-stripped FBS (HyClone) and 100 nM of indicated retinoids or 0.1% DMSO was added to the cells for 24 hours before an additional 2 to 3 hours incubation in the presence of 1 μM of paclitaxel. Cell lysates was prepared from each well as described and cleared by centrifugation. JNK was immunoprecipitated from each lysate by incubating overnight at 4° C. with 1 μg of anti-hJNK (Pharmingen) and 25 μl of protein G agarose beads (Gibco-BRL) previously washed with the lysis buffer. Immune complexes were pelleted by centrifugation 2 minutes at 10,000 rpm 4° C. and washed 3 times with PBS containing 1% NP40 and 2 mM of Na3VO4, once with 100 mM Tris-HCl pH7.5, 0.5 mM LiCl and once with Kinase Reaction Buffer (KRB: 12.5 mM MOPS pH7.5, 12.5 mM β-glycerolphosphate, 7.5 mM MgCl2, 0.5 mM EGTA, 0.5 mM NaF, 0.5 mM Na3VO4). […] The kinase reaction was terminated by adding 10 μl of Laemmli sample buffer. resolved by 10% SDS-PAGE and phosphorylated GST-c-Jun visualized by autoradiography and quantified by densitometry. […]

Another data set deals with Bcl-2. Kind of data set: Bcl-2 expression and phosphorylation (immunoblotting). Type of data set: cell-based, human. To be noted: MCF7; single agent. On the procedure:
To determine effects of RAR agonists on anchorage-dependent colony size, number and morphology, MCF7 cells were plated in 6 well plates (500 cells/well) in DMEM supplemented with 10% FBS and grown for 5 days. The medium was then removed and the compounds were added to the medium supplemented with 5% of charcoal stripped FBS (HyClone). The compound containing medium was renewed after 3 days and cultures were allowed to grow an additional 3 days. After 6 days exposure to compounds, colonies were stained with crystal violet. Colonies were counted to quantify colony area and number and photographed under light microscopy to assess effects on colony size and morphology. The results presented are representative of two independent experiments. Immunoblotting MCF-7 cellular lysates were prepared for Western blotting in accordance with procedures described by Sambrook et al. (MOLECULAR CLONING: A LABORATORY MANUAL, 2nd Ed.; Cold Spring Harbor Laboratory Press, Cold Spring Harbor, N. Y. (1989)). Cell lysates were prepared by adding 200 μl of lysis buffer (Tris-HCl, pH 6.8, 20 mM, EDTA 1 mM, NP-40 0.5%) containing a protease inhibitor cocktail (Roche) to each well of 6 well plates. […]

The subject of a further data set is MCF7 cells. Kind of data set: Anchorage-dependent colony formation assay. The class given is cell-based, human. To be noted: for colony formation and morphology: 6 days exposure, crystal violet. On the procedure:
To determine effects of RAR agonists on anchorage-dependent colony size, number and morphology, MCF7 cells were plated in 6 well plates (500 cells/well) in DMEM supplemented with 10% FBS and grown for 5 days. The medium was then removed and the compounds were added to the medium supplemented with 5% of charcoal stripped FBS (HyClone). The compound containing medium was renewed after 3 days and cultures were allowed to grow an additional 3 days. After 6 days exposure to compounds, colonies were stained with crystal violet. Colonies were counted to quantify colony area and number and photographed under light microscopy to assess effects on colony size and morphology. The results presented are representative of two independent experiments. Immunoblotting MCF-7 cellular lysates were prepared for Western blotting in accordance with procedures described by Sambrook et al. (MOLECULAR CLONING: A LABORATORY MANUAL, 2nd Ed.; Cold Spring Harbor Laboratory Press, Cold Spring Harbor, N. Y. (1989)). Cell lysates were prepared by adding 200 μl of lysis buffer (Tris-HCl, pH 6.8, 20 mM, EDTA 1 mM, NP-40 0.5%) containing a protease inhibitor cocktail (Roche) to each well of 6 well plates. The lysates were then cleared by centrifugation at 10,000 rpm, 4EC for 5 minutes and supernatants were adjusted with Laemmli sample buffer and processed by 10 or 15% SDS-polyacrylamide gel electrophoresis (PAGE), followed by transfer to nitrocellulose membranes (Biorad). Membranes were processed by standard methods and incubated with primary antibodies for 1 hour at room temperature or overnight at 4EC. Bound antibody was visualized using a goat anti-IgG secondary antibody conjugated to HRP and a chemiluminescent detection system (ECL, Amersham Pharmacia Biotech).

Data set [3] has as its system MCF7, OVCAR3 and SQCC-Y1 cells. Kind of data set: Growth inhibition, statements across the three human tumor cell lines. Type of data set: cell-based. To be noted: co-treatment with paclitaxel, Table 1. How it is done:
as §1

Where [4] appears, read: Homo sapiens, 144 h, maximal inhibition, paclitaxel co-treated with the labelled retinoid (none = paclitaxel alone), read-out: Efficacy (percent inhibition compared with DMSO).

The values below come from US20040122080A1, “Synergist combinations of retinoid receptor ligands and selected cytotoxic agents for treatment of cancer” (priority 2004, published 2004).

A word on the IC50: it is the midpoint of a concentration-inhibition curve. The inhibition is the share of the control response that was lost under treatment.

Experimental for tubulin: The effects of retinoid and paclitaxel exposure on free and polymerized tubulin levels were determined in accordance with procedures described by Giannakakou et al. (J. Biol. Chem. 1997 272:17118-17125). MCF7 cells were plated in 6 well plates in DMEM supplemented with 10% FBS and allowed to adhere overnight. Cell medium was removed the following day and the indicated compounds were added to fresh medium supplemented with 5% of charcoal stripped FBS (HyClone). The cells were grown for 3 days in the presence of the retinoids before paclitaxel was added for 1 hour. Soluble and polymerized tubulin were extracted and respective levels were assessed by Western blotting as described above using anti-(tubulin antibodies (n=2).

As to `CC(=O)O[C@H]1C(=O)[C@@]2(C)[C@H]([C@H](OC(=O)c3ccccc3)[C@]3(O)C[C@H](OC(=O)[C@H](O)[C@@H](NC(=O)c4ccccc4)c4ccccc4)C(C)=C1C3(C)C)[C@]1(OC(C)=O)CO[C@@H]1C[C@@H]2O` [paclitaxel], the polymerization of tubulin result in the data set on tubulin was “dose-dependent polymerization of tubulin”. The Emax was found to be 100% in the data set on MCF7 (setting [4]); 100% in the data set with SQCC-Y1 (setting [4]); 99% in the data set on OVCAR3 (Homo sapiens, OVCAR-3, 144 h, maximal inhibition, paclitaxel co-treated with the labelled retinoid (none = paclitaxel alone), read-out: Efficacy (percent inhibition compared with DMSO)). Besides, the concentration for half-maximal inhibition (IC50) in the data set with SQCC-Y1 (Homo sapiens, 144 h, 6 day treatment, paclitaxel co-treated with the labelled retinoid (none = paclitaxel alone), mean of 2 to 5 experiments) was 0.16 nM; in the data set with OVCAR3 (Homo sapiens, OVCAR-3, 144 h, 6 day treatment, paclitaxel co-treated with the labelled retinoid (none = paclitaxel alone), mean of 2 to 5 experiments) it was 0.6 nM. In addition, in data set [1] (single agent, paclitaxel 1 μM, PMA 10 nM), the “enhancement of PMA-induced AP1 transcriptional activity” value stood at 20%. Moreover, in [2] (single agent, paclitaxel 1 μM 2 to 3 hours, retinoids 100 nM 24 hours), the “increase in JNK activity” value is given as 2.5 fold. Moreover, the “phosphorylation of Bcl-2” value in the data set with Bcl-2 is listed as “dose-dependent increase”.

In the case of `Cc1cccc(C2=CC(=O)C(C)(C)c3cc4ccc(-c5ccc(C(=O)O)cc5)cc4cc32)c1` [Formula II, 4-(5,6-dihydro-5,5-dimethyl-6-oxo-8-(3-methyl-phenyl)-anthracen-2-yl)-benzoic acid], the “colony formation and morphology” value with MCF7 cells (MCF7) was “strongly impaired colony formation”. Besides, the “sensitivity of the cells to paclitaxel” value with MCF7 cells (MCF7, pre-treatment for three days) is on record as “significantly enhanced the sensitivity of the cells to paclitaxel”. In addition, the “effect on paclitaxel/PMA-induced AP1 activity” value in data set [1] (combination with paclitaxel) is “did enhance the effects of paclitaxel/PMA or AP1 activity”. In addition, the “effect on the effective dose of paclitaxel required to induce cytotoxicity” value in data set [3] is “lowered the effective dose of paclitaxel required to induce cytotoxicity”. Besides, the “effect on paclitaxel-induced JNK activity” value in data set [2] (combination with paclitaxel) is “did not modify paclitaxel-induced JNK activity”.

For the compound `CC(C)(C)/C=C\C1=CCC(C)(C)c2ccc(/C=C/c3ccc(C(=O)O)cc3)cc21` [Formula Ia], the “colony formation and morphology” value with MCF7 cells (MCF7) is “dramatic change in the morphology of both the colonies and the cells”. In addition, the “decrease of the IC50 of paclitaxel in the presence of the retinoid” value with MCF7 came to 8 fold; in the data set on SQCC-Y1, 32 fold; with OVCAR3, 15 fold. The inhibition at 0.05 µM in [1] (Homo sapiens, MCF7, at 50 nM, PMA 10 nM, 6 hours, read-out: inhibition of PMA-induced AP1 reporter activity, maximum) lay in the range of 30 to 45%. The “effect on the effective dose of paclitaxel required to induce cytotoxicity” value in [3] was “dramatically lowered the effective dose of paclitaxel required to induce cytotoxicity”.

`CC1=C(/C=C/C(C)=C/C=C/C(C)=C/C(=O)O)C(C)(C)CCC1` [ATRA, all trans retinoic acid]: the “colony formation and morphology” value with MCF7 cells (MCF7) is listed as “impaired colony formation”. Besides, the “apoptosis in treated colonies” value in the data set with MCF7 cells (MCF7 colonies) is on record as “high level of apoptosis”.
